Entries after “also recorded” stand apart in the source; their conditions may differ.
Legend:
[1] = test system: WT and Ptpn11^D61G/+ mice; test: Echocardiography, postnatal dasatinib treatment; format: in vivo; settings: for % EF (ejection fraction) / % FS (fractional shortening) / IVS, d (Intraventricular septum wall thickness, diastole) / IVS, s (Intraventricular septum wall thickness, systole) / LV vol, d (left ventricle volume, diastole) / LV vol, s (left ventricle volume, systole) / LVID, d (left ventricular internal dimension, diastole) / LVID, s (left ventricular internal dimension, systole) / LVPW, d (left ventricular posterior wall thickness, diastole) / LVPW, s (left ventricular posterior wall thickness, systole): n = 6, Mean ± SEM
Description: Dasatinib Treatment—N-(2-chloro-6-methylphenyl)-2-[[6-[4-(2-hydroxyethyl)-1-piperazinyl]-2-methyl-4-pyrimidinyl]amino]-5-thiazole carboxamide monohydrate (dasatinib, BMS-354825) was purchased from Biovision. dasatinib was dissolved in DMSO at a concentration of 10 mg/ml, then resuspended in vehicle (1× Dulbecco's PBS) at a concentration of 200 μg/ml. […] And then, injection was continued or discontinued for 2 weeks, Vehicle-injected mice served as control, Body weight was measured weekly and echocardiography was performed at P42 (6-weeks) and P56 (8-weeks).
(§1) Vehicle-injected mice served as control.

[2] = test system: c-Src and PZR tyrosyl phosphorylation in the heart of NS mice; test: Phosphorylation in heart tissue after i.p. dasatinib, immunoblot; format: in vivo
Description: Male Ptpn11D61G/+ mice were injected i.p. with dasatinib at the indicated dose or DMSO control, 24h later mice were sacrificed, heart tissue harvested and immunoblotted using the indicated antibodies.
FIG. 13i is an image showing heart tissue immunoblotted with anti-Shp2, p-ERK1/2, ERK1/2, p-Src (Y416), Src, p-PZR (Y263) and PZR antibodies. […] Heart tissue was isolated after 18 hr and tissue lysates were immunoblotted.
FIG. 18a is an image showing heart tissue immunoblotted with p-Raf1 (Y341), Raf1, p-MEK1/2, MEK1/2, p-INK, INK, p-p38, p38, p-Akt (S473) and Akt antibodies. Heart tissue was isolated after 18 hr and tissue lysates were immunoblotted.
Immunoprecipitation and Immunoblotting—Cells or heart tissue were lysed on ice in lysis buffer (25 mM Tris-HCl, pH 7.4, 136 mM NaCl, 1 mM CaCl2, 1 mM MgCl2, 1% Nonidet P-40, 1 mM Na3VO4, 10 mM NaF, 1 mM benzamidine, 1 mM PMSF, 1 μg/ml pepstatin A, 5 μg/ml aprotinin, and 5 μg/ml leupeptin). Cell or tissue lysates were incubated at 4° C. for 30 min and clarified by centrifugation at 14,000 rpm at 4° C. for 10 min.

[3] = test system: cardiomyocytes isolated from the heart of WT and Ptpn11^D61G/+ mice; test: Ca2+ excitation-contraction coupling of cardiomyocytes isolated from treated mice; format: in vivo
Description: as §1
Enzymatic Digestion of Cardiac Tissue for Single-Cell Analysis—Cardiomyocytes from 8 week old mice were isolated by a Langendorff procedure, modified from Xianghua Xu, et al. J Vis Exp. 2009; (28):1308. In brief, the hearts were quickly excised and cannulated to a Langendorff apparatus where they were perfused with 37° C. Ca^2+-free perfusion buffer (in 25 mM HEPES, 118 mM NaCl, 4.8 mM KCl, 2.0 mM KH2PO4, 2.55 mM MgSO4, 10 mM BDM and 10 mM Glucose). To digest the tissue, the heart was perfused with buffer containing 0.5 mg/mL Liberase TH (Roche Applied Science, Penzberg, Germany). After ˜10 min, the heart was removed from the Langendorff apparatus and the right ventricle and atria removed. The left ventricle was isolated, cut into small pieces and digested further at 37° C. digestion solution with mechanical agitation for 5-10 min, and then gently triturated to liberate individual cells. The remaining tissue chunks were transferred to fresh digestion buffer and the process was repeated up to 6 times, or until all tissue was digested. Cells were removed from collagenase by gentle centrifugation and resuspended in several washing steps of buffer containing FBS and gradually reintroduced to calcium (0.05-1.1 mM) through step-wise additions of concentrated CaCl2 solution. Cells were allowed to rest for at least 1 h before imaging.
Cardiomyocyte Functional Characterization—Cardiomyocytes were imaged in Tyrodes solution ([…] NaCl: 140, KCl: 5.4, CaCl2:1.8, MgCl2:1, HEPES: 25 mM, glucose: 10 mM). Cell pellets were loaded for 15 minutes in the dark with Tyrodes supplemented with 2.5 μM Fura-2 AM complimented with pluronic acid (20% w/v), for calcium fluorescence imaging. After 15 minutes of loading, the cells were resuspended in fresh Tyrodes solution and allowed to settle until imaging. Cardiomyocyte Ca^2+ transients and unloaded shortening contractions were measured using an inverted microscope (Nikon Eclipse, Chiyoda, Tokyo) equipped with a temperature controlled perfusion bath (Cell MicroControls, Norfolk, Va.) under constant perfusion of 37° C. Tyrodes solution. Cells were field-stimulated at 1 Hz. Contractile events were imaged in real-time using a sarcomere length camera system (HVSL, Aurora Scientific, Ontario, Canada). Only rod-shaped cells with well-defined sarcomere striations that contracted when stimulated were selected for measurement. Sarcomere length was measured and recorded for ten consecutive beats and subsequently averaged across beats to produce a single waveform. Calcium transient measurements were recorded simultaneously using alternating excitation wavelengths of 340 and 380 nm generated at an overall rate of 100 Hz by a RatioMaster fluorescence system (PTI, Birmingham, N.J.). Fluorescence emission was filtered at a center wavelength of 510 nm and quantified to obtain responses to the alternating excitation wavelengths (F340 and F380, respectively). Ca^2+ transients were reported as the interpolated ratio of the two fluorescence intensities (F340/F380) at each time point. Data were recorded using a DAP5216a data acquisition system (Microstar Laboratories, Bellevue, Wash.) and processed using custom software written in MATLAB (MathWorks, Natick, Mass.). Peak sarcomere length shortening (Peak SL shortening), time to peak shortening (TTP), time to 50% re-lengthening (RT50), the magnitude of the calcium transient (Ca^2+ Rmag:Max F340/F380−Min F340/F380) and the rate of calcium decay, Tau (TauCa2+) were computed.

[4] = test system: WT and Ptpn11^D61G/+ mice; test: Liver damage (H&E histology, serum ALT) after postnatal dasatinib; settings: postnatal 0.1 mg/kg/day; wild type or NS mice; monohydrate
Description: All data present mean±SEM. *, p<0.05; ***, p<0.001. (n=7˜10 for each group; Two-way ANOVA test).
Histology—Heart, liver and spleen were isolated from vehicle- or dasatinib-treated wild type and NS mice. Tissues were fixed in 4% paraformaldehyde in phosphate-buffer saline (PBS), processed for paraffin sections and stained with hematoxylin and eosin (H&E) or Masson's Trichrome. Tissue images were obtained under bright field microscopy (Olympus BX51, Yale Liver Center).

[5] = postnatal 0.1 mg/kg/day i.p. P10 to P42, then discontinued 2 weeks, Ptpn11D61G/+ mice, P56
[6] = postnatal 0.1 mg/kg/day i.p. P10 to P42, then discontinued 2 weeks, WT mice, P56
[7] = postnatal 0.1 mg/kg/day i.p. from P10, Ptpn11D61G/+ mice, P42
[8] = postnatal 0.1 mg/kg/day i.p. from P10, WT mice, P42
[9] = postnatal dasatinib, Ptpn11D61G/+ mice, P56, n = 162 cells, n = 3 mice, Mean ± SEM
[10] = postnatal dasatinib, WT mice, P56, n = 111 cells, n = 3 mice, Mean ± SEM

Which results are given for Cc1nc(Nc2ncc(C(=O)Nc3c(C)cccc3Cl)s2)cc(N2CCN(CCO)CC2)n1.O [Dasatinib, N-(2-chloro-6-methylphenyl)-2-[[6-[4-(2-hydroxyethyl)-1-piperazinyl]-2-methyl-4-pyrimidinyl]amino]-5-thiazole carboxamide monohydrate]?
fold lower than therapeutic dose ([1]; 0.1 mg/kg versus therapeutic dose): about 200 fold; dose sufficient to treat CHD-associated cardiac disease ([1]; mice): 0.1 mg/kg; cardiac function after cessation of treatment ([1]; postnatal 0.1 mg/kg/day P10 to P42, discontinued 2 weeks, NS mice, P56, monohydrate): preserved improvement of cardiac function; also recorded: continued preservation of cardiac function; cardiac function (EF and FS) ([1]; postnatal 0.1 mg/kg/day from P10, NS mice, P42, monohydrate): improves cardiac function; also recorded: complete corrective functionality; also recorded: completely restored cardiac functionality; % EF (ejection fraction) [1, 5]: 64.71 ± 1.67 %; % FS (fractional shortening) [1, 5]: 34.92 ± 1.23 %; IVS, d (Intraventricular septum wall thickness, diastole) [1, 5]: 0.72 ± 0.04 mm; IVS, s (Intraventricular septum wall thickness, systole) [1, 5]: 1.18 ± 0.05 mm; LV vol, d (left ventricle volume, diastole) [1, 5]: 65.60 ± 2.44 mm^3; LV vol, s (left ventricle volume, systole) [1, 5]: 24.85 ± 1.68^† mm^3; LVID, d (left ventricular internal dimension, diastole) [1, 5]: 3.93 ± 0.08 mm; LVID, s (left ventricular internal dimension, systole) [1, 5]: 2.60 ± 0.07 mm; LVPW, d (left ventricular posterior wall thickness, diastole) [1, 5]: 0.65 ± 0.03 mm; LVPW, s (left ventricular posterior wall thickness, systole) [1, 5]: 1.19 ± 0.05 mm; % EF (ejection fraction) [1, 6]: 65.89 ± 1.74%; % FS (fractional shortening) [1, 6]: 36.63 ± 1.20%; IVS, d (Intraventricular septum wall thickness, diastole) [1, 6]: 0.69 ± 0.03 mm; IVS, s (Intraventricular septum wall thickness, systole) [1, 6]: 1.19 ± 0.06 mm; LV vol, d (left ventricle volume, diastole) [1, 6]: 64.06 ± 2.65 mm^3; LV vol, s (left ventricle volume, systole) [1, 6]: 23.06 ± 2.21 mm^3; LVID, d (left ventricular internal dimension, diastole) [1, 6]: 3.92 ± 0.09 mm; LVID, s (left ventricular internal dimension, systole) [1, 6]: 2.52 ± 0.10 mm; LVPW, d (left ventricular posterior wall thickness, diastole) [1, 6]: 0.80 ± 0.06 mm; LVPW, s (left ventricular posterior wall thickness, systole) [1, 6]: 1.18 ± 0.05 mm; % EF (ejection fraction) [1, 7]: 60.93 ± 2.06 %; % FS (fractional shortening) [1, 7]: 33.08 ± 1.33 %; IVS, d (Intraventricular septum wall thickness, diastole) [1, 7]: 0.66 ± 0.05 mm; IVS, s (Intraventricular septum wall thickness, systole) [1, 7]: 1.04 ± 0.07 mm; LV vol, d (left ventricle volume, diastole) [1, 7]: 57.35 ± 2.19 mm^3; LV vol, s (left ventricle volume, systole) [1, 7]: 24.67 ± 1.18 mm^3; LVID, d (left ventricular internal dimension, diastole) [1, 7]: 3.63 ± 0.07 mm; LVID, s (left ventricular internal dimension, systole) [1, 7]: 2.50 ± 0.08 mm; LVPW, d (left ventricular posterior wall thickness, diastole) [1, 7]: 0.71 ± 0.03 mm; LVPW, s (left ventricular posterior wall thickness, systole) [1, 7]: 1.09 ± 0.06 mm; % EF (ejection fraction) [1, 8]: 65.70 ± 0.82%; % FS (fractional shortening) [1, 8]: 35.52 ± 0.69%; IVS, d (Intraventricular septum wall thickness, diastole) [1, 8]: 0.71 ± 0.05 mm; IVS, s (Intraventricular septum wall thickness, systole) [1, 8]: 1.13 ± 0.06 mm; LV vol, d (left ventricle volume, diastole) [1, 8]: 65.87 ± 2.78 mm^3; LV vol, s (left ventricle volume, systole) [1, 8]: 22.24 ± 0.63 mm^3; LVID, d (left ventricular internal dimension, diastole) [1, 8]: 3.80 ± 0.11 mm; LVID, s (left ventricular internal dimension, systole) [1, 8]: 2.45 ± 0.05 mm; LVPW, d (left ventricular posterior wall thickness, diastole) [1, 8]: 0.81 ± 0.04 mm; LVPW, s (left ventricular posterior wall thickness, systole) [1, 8]: 1.25 ± 0.07 mm; ERK1/2, Raf-1, MEK1, p38 MAPK and JNK phosphorylation in the heart ([2]; 3-week-old NS mice, dasatinib 0.1-0.5 mg/kg i.p.): neither ERK1/2 phosphorylation (FIGS. 13i-13l), Raf-1, MEK1, p38 MAPK, nor JNK were affected; dose sufficient to significantly inhibit both c-Src and PZR tyrosyl phosphorylation in the heart ([2]; 3-week-old NS mice, i.p., heart isolated after 18 hr): 0.5 mg/kg; fold lower dose than effective chemotherapeutic doses that can inhibit PZR tyrosyl phosphorylation in the heart ([2]; NS mice, chemotherapeutic approx. 1.4-2.0 mg/kg/day): up to 250 fold; PZR tyrosyl phosphorylation in heart tissue ([2]; male Ptpn11D61G/+ mice, i.p., 24 h): effective at reducing; Ca2+ signaling during excitation-contraction coupling ([3]; cardiomyocytes from dasatinib treated Ptpn11D61G/+ mice): normal; difference in relative calcium release (Rmag Ca2+) between NS and wild type cardiomyocytes ([3]; postnatal dasatinib, NS mice): substantially ameliorated; differences in fractional shortening of sarcomeres between NS and wild type cardiomyocytes ([3]; postnatal dasatinib, NS mice): completely restored; Ca^2+ TTP (Time to peak, F340/380) [3, 9]: 43.22 ± 0.90 ms; Diastolic Ca^2+ (MinF340/380) [3, 9]: 0.98 ± 0.01; Peak Shortening [3, 9]: 6.59 ± 0.18 %; Rmag Ca^2+ (ΔF340/380) [3, 9]: 0.14 ± 0.01; Shortening RT50 (Time from peak tension to 50% relaxation) [3, 9]: 37.02 ± 0.62 ms; Shortening RT90 (Time from peak tension to 90% relaxation) [3, 9]: 99.24 ± 3.23 ms; Shortening TTP (Time to peak) [3, 9]: 69.32 ± 0.79 ms; Systolic Ca^2+ (Max F340/380) [3, 9]: 1.12 ± 0.01; Tau Ca^2+ [3, 9]: 116.52 ± 2.36 ms; Ca^2+ TTP (Time to peak, F340/380) [3, 10]: 42.75 ± 1.21 ms; Diastolic Ca^2+ (MinF340/380) [3, 10]: 0.94 ± 0.01; Peak Shortening [3, 10]: 6.04 ± 0.23 %; Rmag Ca^2+ (ΔF340/380) [3, 10]: 0.11 ± 0.01; Shortening RT50 (Time from peak tension to 50% relaxation) [3, 10]: 41.11 ± 0.96 ms; Shortening TTP (Time to peak) [3, 10]: 71.52 ± 0.90 ms; Systolic Ca^2+ (Max F340/380) [3, 10]: 1.06 ± 0.01; Tau Ca^2+ [3, 10]: 105.85 ± 2.35 ms; liver damage [4]: no evidence of liver damage; also recorded: does not induce liver damage

From patent publication US10471059B2, “Compositions and methods of using tyrosine kinase inhibitors” (YALE UNIVERSITY, priority 2015, dated 2019)
